pIC50: −log10 of the molar value.
Columns and labels:
[1] = system: Itching in Chronic Dermatitis Model to which Hapten was Repeatedly Applied; test: Effect on itching in chronic dermatitis model to which hapten (oxazolone) was repeatedly applied; type: in vivo, BALB/c male mice; settings: mean ± standard error, control group 264 ± 29
Description: Preparation of chronic dermatitis model to which hapten was repeatedly applied was conducted according to the method by Kitagaki, et al. [Journal of Investigative Dermatology, volume 105, pages 749-755 (1995)] with some modifications.
With regard to hapten, oxazolone (manufactured by Sigma-Aldrich) was used and dissolved in acetone (manufactured by Kanto Kagaku) to prepare a 0.5 w/v % solution of oxazolone in acetone (antigen solution). The antigen solution (10 μL) was applied to the rostal back of BALB/c male mice (6 weeks age) with the hair was shaved to sensitize the mice. Starting from 7 days thereafter (day 0), the antigen solution (10 μL) was repeatedly challenged to apply at the same site until day 16 every two or three days to prepare chronic dermatitis models.
Compound 1 was suspended in a 0.5 w/v % aqueous solution of MC in a concentration of 10 and 30 mg/mL, respectively, and orally administered at a dose of 10 mL/kg at 1 hour before application of the antigen solution on the day 16. As a control group, a group to which only 0.5 w/v % aqueous solution of MC was similarly administered per os was prepared. […]
In order to adjust the mice to new environment, they were allowed to place for one hour in a cage (7.5×8×15 cm) made of acrylic for observation. […] The numbers of scraching behavior by hind limb to the applied site and around there were counted.

Itching Induced by SPC = test: Suppressive effect on itching induced by SPC (scratching behavior in mice); type: in vivo, ddY male mice; settings: 300 mg/kg orally one hour before SPC (50 μg/site s.c.), counted for 60 minutes, ten mice per group
Description: SPC (50 μg/site) was subcutaneously administered (an SPC-administered group) to the rostal back of ddY male mice (3 to 4 weeks age), the mice were placed in a cage made of acrylic for the observation (7.5×7.5×15 cm) and behavior of the mice was taken by a video camera for 60 minutes in the absence of observing persons. The video camera was subjected to a playback and numbers of scratching behavior by hind limb were counted by visual observation. In a negative control group (a group to which a physiological saline was administered), a physiological saline (0.1 mL/site) was administered instead of SPC. In the compound-administered group, each compound 1 and compound 3 (300 mg/kg) was suspended in a 0.5 w/v % aqueous solution of methyl cellulose (MC) and orally administered at one hour before administration of SPC. In each of the SPC-administered group and the physiological saline-administered group, a 0.5 w/v % aqueous solution of MC (10 mL/kg) was orally administered at one hour before administration of SPC and physiological saline, respectively. The test was conducted for ten mice per group. Suppressive rate by the compounds for scratching behavior induced by SPC was calculated by the following formula. In the formula, A and B have the following meanings, respectively. […]

[2] = system: Itching Induced by Compound 48/80; test: Effect on itching induced by Compound 48/80 (scratching behavior in mice); type: in vivo, ddY strain mice; settings: 300 mg/kg orally one hour before Compound 48/80 (10 μg/site s.c.); for Numbers of Scratching Behavior (numbers/60 min): ten mice per group; for Suppressive rate(%) of scratching behavior induced by Compound 48/80: versus Compound 48/80-administered group
Description: Compound 48/80 (10 μg/site) was subcutaneously administered (a Compound 48/80-administered group) to the rostal back of ddY strain mice (4 weeks age), the mice were placed in a cage made of acrylic for the observation (7.5×7.5×15 cm) and behavior of the mice was taken by a video camera for 60 minutes in the absence of observing persons. The video camera was subjected to a playback and numbers of scratching behavior by hind limb were counted by visual observation. In a negative control group (a group to which a physiological saline was administered), a physiological saline (0.1 mL/site) was administered instead of Compound 48/80. In the compound-administered group, each compound 1 and compound 3 (300 mg/kg) was suspended in a 0.5 w/v % aqueous solution of methyl cellulose (MC) and orally administered at one hour before administration of Compound 48/80. In each of the Compound 48/80-administered group and the physiological saline-administered group, a 0.5 w/v % aqueous solution of MC was orally administered at one hour before administration of Compound 48/80 and physiological saline, respectively. The test was conducted for ten mice per group. Suppressive rate by the compound for scratching behavior induced by Compound 48/80 was calculated by the following formula.
In the formula, C and D have the following meanings.
C: numbers of scratching behavior of the Compound 48/80-administered group
D: numbers of scratching behavior of the compound-administered group Suppressive Rate (%)=[(C−D)/C]×100

GPR4 = biological target: T1, GPR4 (Homo sapiens, UniProt P46093); test: Antagonistic action on GPR4 (luciferase reporter in GPR4 assay cells); type: cell-based; settings: 17β-estradiol 10 nmol/L, 6 hours, luciferase luminescence
T1 construct: expressed in transfected cells; host or cells: KJMGER8 (Namalwa KJM-1 human B-cell line stably expressing Gal4-ER), stably co-transfected with pAGal9-GPR4 and the CRE-luciferase reporter pACREpluc
T1 sequence (P46093 whole entry E215Q, the tested form may be a part): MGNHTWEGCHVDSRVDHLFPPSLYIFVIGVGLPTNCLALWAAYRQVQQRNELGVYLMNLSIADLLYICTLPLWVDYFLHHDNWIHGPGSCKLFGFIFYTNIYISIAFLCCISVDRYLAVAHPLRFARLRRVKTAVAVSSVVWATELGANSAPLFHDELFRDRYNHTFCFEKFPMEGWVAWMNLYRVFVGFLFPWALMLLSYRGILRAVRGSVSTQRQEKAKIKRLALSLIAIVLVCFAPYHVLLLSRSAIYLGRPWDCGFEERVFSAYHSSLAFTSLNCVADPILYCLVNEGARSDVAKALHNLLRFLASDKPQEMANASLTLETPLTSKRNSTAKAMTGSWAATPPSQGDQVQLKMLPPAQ
Description: Cells for GPR4 assay prepared in Referential Example 5 (said assay cells express GPR4 by stimulation with 17β-estradiol) were seeded on white plates at the rate of 10^5 cells/well, and a solution where 17β-estradiol (manufactured by Sigma) was diluted with a medium so as to make 10 nmol/L in the reaction solution and test compounds were added to the plate and the mixture was incubated at 37° C. for 6 hours in a 5% CO2 incubator. After that, a Steady Glo Luciferase Assay System (manufactured by Promega) solution was added to stop the reaction and the amount of luminescence during one second was measured using a Top Count (Packard, Meriden, Conn., U.S.A.).
Activity of the each of test compounds (antagonistic action) was expressed by an inhibition rate calculated on the basis of counts per second in the presence or absence of 17β-estradiol as shown by the following formula. IC50 value was calculated from the inhibition rate by a linear approximate analysis of the Logit-Log conversion method.
In the formula, A, B and C each have the following meaning, respectively.
A: counts per second when 17β-estradiol and the test compound were added
B: counts per second when neither 17β-estradiol nor the test compound was added
C: counts per second when only 17β-estradiol was added Inhibition Rate (%)=[1−{(A−B)/(C−B)}]×100
2 μl of plasmid pAGal9-GPR4 with inducible expression of GPR4 and 2 μl of reporter plasmid pACREpluc were co-transferred into 6×10^6 cell of KJMGER8 by the above-mentioned electroporation. The transformants were suspended in 8 ml of an RPMI 1640-ITPSG medium and cultured in a CO2 incubator at 37° C. for 24 hours. After the cultivation, blasticidin S ([…]), hygromycin B (300 μg/ml) and geneticin ([…]) were added and cultivation was carried out for 14 days more, and stable transformants (called GPR4 assay cells) were obtained. The transformants were subcultured in an RPMI 1640-ITPSG medium containing blasticidin S (2.0 μg/ml), hygromycin B (300 μg/ml) and geneticin ([…]).

## CCc1nc2c(C)cc(C)nc2n1Cc1ccc2c(c1)CCc1cc(CN3CCN(C)CC3)ccc1N2 [Compound 1, 2-(2-Ethyl-5,7-dimethyl-3H-imidazo[4,5-b]pyridin-3-ylmethyl)-8-(4-methylpiperazin-1-ylmethyl)-10,11-dihydro-5H-dibenz[b,f]azepine]
[1]; 100 mg/kg orally 1 hour before antigen application on day 16
  Numbers of Scratching Behavior for 1 Hour after Application of Hapten: 138 ± 33
[1]; 300 mg/kg orally 1 hour before antigen application on day 16
  Numbers of Scratching Behavior for 1 Hour after Application of Hapten: 2 ± 1
Itching Induced by SPC
  Numbers of scratching behavior of the compound-administered group: 13
[2]
  Numbers of Scratching Behavior (numbers/60 min): 16 numbers/60 min
  Suppressive rate(%) of scratching behavior induced by Compound 48/80: 54%
GPR4
  pIC50: 8.40

## CCc1nc2c(C)cc(C)nc2n1Cc1ccc2c(c1)CCc1cc(CN3CC=CCC3)ccc1N2 [Compound 2, 2-(2-Ethyl-5,7-dimethyl-3H-imidazo[4,5-b]pyridin-3-ylmethyl)-8-(1,2,5,6-tetrahydropyridin-1-ylmethyl)-10,11-dihydro-5H-dibenz[b,f]azepine]
GPR4
  pIC50: 8.49

## CCc1nc2c(C)cc(C)nc2n1Cc1ccc2c(c1)CCc1cc(CN3CCCC3)ccc1N2 [Compound 3, 2-(2-Ethyl-5,7-dimethyl-3H-imidazo[4,5-b]pyridin-3-ylmethyl)-8-(pyrrolidin-1-ylmethyl)-10,11-dihydro-5H-dibenz[b,f]azepine]
Itching Induced by SPC
  Numbers of scratching behavior of the compound-administered group: 18
[2]
  Numbers of Scratching Behavior (numbers/60 min): 26 numbers/60 min
  Suppressive rate(%) of scratching behavior induced by Compound 48/80: 52%
GPR4
  pIC50: 8.64

## CCc1nc2c(C)cc(C)nc2n1Cc1ccc2c(c1)CCc1cc(CN3CCOCC3)ccc1N2 [Compound 4, 2-(2-Ethyl-5,7-dimethyl-3H-imidazo[4,5-b]pyridin-3-ylmethyl)-8-morpholinomethyl-10,11-dihydro-5H-dibenz[b,f]azepine]
GPR4
  pIC50: 8.24

## CCc1nc2c(C)cc(C)nc2n1Cc1ccc2c(c1)CCc1cc(CN3CC(C)CC(C)C3)ccc1N2 (stereo not shown) [Compound 5]
GPR4
  pIC50: 7.85

— patent US20060252679A1, “Preventive and/or trerapeutic drgs for itch” (priority 2002, published 2006)
